pIC50: −log10 of the molar value. Where a SMILES comes first, the peptide text is derived from it.
Key:
[1] = target: T1, wildtype EGFR kinase domain (Homo sapiens, UniProt P00533); assay: Continuous enzyme-coupled kinase assay, substrate peptide KM; assay type: biochemical; conditions: preliminary experiments, substrate peptide at various concentrations; ATP 0.5 mM
T1 construct: DNA encoding residues 672-998 of human EGFR was cloned into pFAST BAC HT; made in house; host or cells: Sf9 insect cells (baculovirus, pFAST BAC HT; b247 prints 'SD cells')
Method: (§1) A continuous enzyme-coupled kinase assay was performed to measure the kinase activity of the proteins as described in Barker et al., ((1995) Biochemistry, Vol. 34(54): 14843-51), with modifications, as described herein. The ATP concentration was kept to 0.5 mM.
(§2) The buffer used contained 10 mM MgCl2, 20 mM Tris, and pH 7.5. […] The substrate peptide was derived from the region spanning Y1173 in EGFR ([…]) (SEQ ID NO: 7). All proteins used in this assay contained the N-terminal (His)6 tag unless otherwise noted.
For comparing the specific activity of the wildtype and various mutant forms of the EGFR kinase domain in the presence and absence of lipid vesicles, the density of DOGS-NTA-Ni on lipid vesicles was kept at 5 mole percent. […] Due to this high value of KM, the values of KM and kcat were not measured directly. Instead, the value of kcat/KM was derived from a linear fit to the data obtained, using concentrations of the peptide that are much lower than the estimated value of KM (V=[S]Vmax/(KM+[S]), V˜(Vmax/KM)[S] when [S]<<KM, kcat=Vmax/amount of the enzyme, where V and Vmax are the initial velocity and maximum initial velocity, respectively. (FIG. 6A).

activated EGFR kinase = target: T2, activated EGFR kinase (Homo sapiens, UniProt P00533); assay: Inhibition of activated EGFR kinase (kinase assay with kinase domain attached to vesicles); assay type: biochemical; conditions: read-out: IC50 inhibiting activated EGFR kinase
T2 construct: DNA encoding residues 672-998 of human EGFR was cloned into pFAST BAC HT; made in house; host or cells: Sf9 insect cells (baculovirus, pFAST BAC HT; b247 prints 'SD cells')
Method: as §1, §2
The protein concentrations of the EGFR kinase domain used in the assay ranged from 3.5 to 14 μM. The total concentration of the DOGS-NTA-Ni in the bulk solution was kept to 12.5 μM in all assays with DOG-NTA-Ni-containing vesicles. For assays of the kinase domain attached to vesicles, the protein and vesicles were preincubated at 4° C. for ˜5 min.
The wildtype EGFR kinase domain was mixed with vesicles containing 0, 0.5, 1, 2 and 5 mole percent of DOGS-NTA-Ni prior to the start of the assay. The final concentration of the protein in the assay was 3.5 μM. […]
For comparing the specific activity of the wildtype and various mutant forms of the EGFR kinase domain in the presence and absence of lipid vesicles, the density of DOGS-NTA-Ni on lipid vesicles was kept at 5 mole percent. […] Due to this high value of KM, the values of KM and kcat were not measured directly. […]

For `CC(C)C[C@H](NC(=O)[C@H](Cc1ccc(O)cc1)NC(=O)[C@H](CCC(=O)O)NC(=O)[C@H](C)NC(=O)[C@H](CC(N)=O)NC(=O)[C@H](CCC(=O)O)NC(=O)[C@H](C)NC(=O)[C@@H](N)[C@@H](C)O)C(=O)N[C@@H](CCCNC(=N)N)C(=O)N[C@H](C(=O)N[C@@H](C)C(=O)N1CCC[C@H]1C(=O)N[C@@H](CCC(N)=O)C(=O)O)C(C)C` [substrate peptide] (H-TAENAEYLRVAPQ-OH), the Km [1] was greater than 4 mM.

Work on “KSLPSYLNGVMPPTQSFAPDPKYVSS [40-mer peptide]” yielded a pIC50 (activated EGFR kinase) of roughly 5.00.
